Experiments:
echoviruses = conditions: in vitro; mechanism not defined; cited from earlier work
[1] = system: Mycobacterium avium complex (MAC); assay: case report Example 8, Mycobacterium avium complex infection; assay type: in vivo, human
Protocol: A person with known history of Mycobacterium avium complex (MAC) infection of the lung and bronchiectasis for several years was treated with clarithromycin, ethambutol, ciprofloxacin and rifabutin for about five years. As a result of persistent positive sputum culture for MAC, the patient was also treated with gamma interferon (an immune booster) without significant benefit. Intravenous amikacin was added following right middle and left lingula lobectomy. In spite of the above therapy, sputum and repeat bronchial washing obtained by bronchoscopy grew MAC within three weeks. A computed tomography scan of the chest remained unchanged except for the post-surgical changes.
Sputum became clear in color then resolved. About two months after the start of oxymatrine, the patient had fevers, flu-like symptoms, increase in non-productive cough, bilateral uveitis and elevation of liver enzymes to 3.5 times normal values. The symptoms lasted two weeks and resolved after tapering dose of oxymatrine to 200 mg bid. Liver enzymes returned to normal within six weeks. […] The anti-MAC medications were discontinued after […] of oxymatrine therapy. The dose of oxymatrine was tapered to 100 mg tid at four and a half months of therapy and then stopped after six months of total therapy. The patient felt well at the six month follow-up.

[2] = system: interleukin-12P35+P40/interleukin-10; assay: cytokine gene expression in CFS patients at start of and during oxymatrine therapy (FIG. 5); assay type: in vivo, human
Source text: • FIG. 1 graphically illustrates the comparison of Th1/Th2 (interleukin-12p35+P40/interleukin-4 + interleukin-10, RQ is the gene expression ratio) gene expression of patients who are functional (able to work) versus totally disability (not able to work). The difference therein is statistically significant (p<0.01, pair t test). • FIG. 2 illustrates the infected human stomach (biopsy of case 5 stained with 5D8/1) before treatment with oxymatrine. • FIG. 3 illustrates the stomach biopsy of case 5 stained with 5 D8/1 after taking oxymatrine for 6 months. • FIG. 4 graphically illustrates a cytokine gene expression study before and after oxymatrine (RQ is the gene expression ratio). • FIG. 5 graphically illustrates cytokine gene expression of interleukin-12P35+P40/interleukin-10 in tissue from CFS patients at the start of (pre-oxymatrine) and during oxymatrine therapy (n=17).

[3] = case report Example 11, treating diarrhea; assay type: in vivo, human; conditions: after starting 200 mg bid
Source text: A person developed continuing watery diarrhea, as many as twenty episodes a day, and mild fatigue for three months. Laboratory studies and stool work-up were completely negative. […] They failed Asacol therapy.

cytokine gene expression = cytokine gene expression study on blood samples before and after oxymatrine (FIG. 4); assay type: in vivo, human; conditions: blood samples before and after taking oxymatrine for 15 months, one patient
Source text: A cytokine gene expression study on blood samples before (Sample 2) and after (Sample 3) taking oxymatrine for 15 months in one patient, is graphically illustrated in FIG. 4. […] FIG. 5 illustrates that neutralizing antibodies CBV 3 and CBV 4 were obtained serially over a three year period (performed by ARUP laboratory, Salt Lake City, UT).

enterovirus [4] = assay: case report Example 12, treating diarrhea; assay type: in vivo, human
Source text: A person developed severe watery diarrhea for two months. Stool evaluation was unremarkable. […] They continued to do well for six months on the medication.

enterovirus [5] = assay: case report Example 3, treatment of chronic fatigue; assay type: in vivo, human
Protocol: A person who had recurrent episodes of debilitating fatigue became totally incapacitated after approximately 17 years. The patient was treated with a combination of alpha and gamma interferon for six weeks with acceptable results. They went into remission but relapsed nine months later after developing a minor upper respiratory infection. They improved minimally after several months of bed rest, but was barely able to work six hours per day. They had brain fog, myalgia (7/10 pain) and was barely able to walk even 1-2 blocks.
Three days after taking oxymatrine at a dose of 300 mg bid, the myalgia intensified (10/10 pain), especially one hour after taking the pills. One week after starting oxymatrine, routine laboratory tests including CBC, chemistry panel and creatine phosphokinase (CPK) were normal. They continued having significant fatigue and myalgia for the next three weeks, but the symptoms resolved one week after stopping the medication. Mild increase in myalgia recurred three days after resuming oxymatrine, but resolved after continuing the medication for the next two weeks. The patient felt well at the end of three months with minimal discomfort in a few muscle groups.
Severe myalgia recurred after resuming vigorous exercise for three weeks while taking oxymatrine. They had to stop exercise for the two months allowing cessation of myalgia. After taking oxymatrine for six months, the patient felt well. Over the next six months after stopping the medication, the patient continuously performed heavy physical activities without significant difficulty. After developing another episode of upper respiratory symptoms, their symptoms relapsed. They have resumed oxymatrine but experienced increasing myalgia as the fatigue improved.

Structure (SMILES): O=C1CCC[C@@H]2[C@H]3CCC[N+]4([O-])CCC[C@@H](CN12)[C@@H]34 (some centres unmarked) [oxymatrine]
- growth inhibition of echoviruses in cell cultures (echoviruses): growth inhibition
- elevation of liver enzymes ([1]; about two months after start, returned to normal within six weeks after tapering to 200 mg bid): 3.5 times normal values
- repeat bronchial washing culture ([1]; bronchoscopy six months after onset of oxymatrine therapy, with anti-MAC medications): no growth of MAC
- repeat computed tomography scans of the chest ([1]; in vivo): healing and calcifications of the lesions
- tolerability ([1]; in vivo): tolerated well
- night sweats ([1]; within two months): decreased from twice a week to once every two weeks
- increase of the interleukin-12P35+P40/interleukin-10 ratio (gene expression) ([2]; seven responders of n=17, pre-oxymatrine vs during therapy): greater than 2 fold
- interleukin-12P35+P40/interleukin-10 ratio (gene expression) ([2]; ten non-responders of n=17, pre-oxymatrine vs during therapy): remained the same or decreased
- diarrhea [3]: resolved completely in a few days
- Th1 cytokines gene expression (interleukin-2, interleukin-12, interleukin-15) (cytokine gene expression): significant increase
- regulatory Th2 cytokine gene expression (interleukin-10) (cytokine gene expression): significant decrease
- diarrhea (enterovirus [4]; after starting oxymatrine): resolved within one week
- effect of decrease of medication to half the dose (enterovirus [4]; resolved after increasing the dosage): relapse of the symptoms
- clinical outcome (enterovirus [5]; after taking oxymatrine for six months): felt well
- clinical outcome (enterovirus [5]; at the end of three months, minimal discomfort in a few muscle groups): felt well
- routine laboratory tests including CBC, chemistry panel and creatine phosphokinase (CPK) (enterovirus [5]; one week after starting oxymatrine): normal
- myalgia (pain) (enterovirus [5]; three days after taking 300 mg bid, 7/10 before): 10/10

From patent EP2307018B1, “OXYMATRINE COMPOSITIONS AND USE THEREOF FOR TREATING AND PREVENTING CHRONIC INFECTIOUS DISEASES” (Chia, John K.S., priority 2008, dated 2010)
